Molecules are shown by their SMILES. Several values for one entry are separate records, joined by “and”; a condition that tells them apart may be missing. Equal values may be shown once. Toxic doses and inconclusive results are not listed.

In the test the test system is BDF1 mice, P388 leukemia ip, median survival T/C. Briefly: NCI In Vivo Anticancer Drug Screen. Data for tumor model P388 Leukemia (intraperitoneal) in B6D2F1 (BDF1) mice. Conditions: endpoint: median survival time, higher = longer survival. A digest of the protocol:
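In tumour-bearing mice, survival after compound treatment is set against the vehicle group and given as a quotient.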

Setting [1] is: dose: 100.0 mg/kg/injection, schedule: Q04DX003 (ip), vehicle: saline.
Where [2] appears, read: dose: 25.0 mg/kg/injection, schedule: Q01DX009 (ip), vehicle: saline.
[3] abbreviates: dose: 100.0 mg/kg/injection, schedule: Q01DX009 (ip), vehicle: saline with Tween-80.
[4] abbreviates: dose: 200.0 mg/kg/injection, schedule: Q01DX009 (ip), vehicle: saline with Tween-80.
[5] abbreviates: dose: 400.0 mg/kg/injection, schedule: Q01DX009 (ip), vehicle: saline with Tween-80.
Setting [6] is: dose: 50.0 mg/kg/injection, schedule: Q01DX009 (ip), vehicle: saline with Tween-80.
The mark [7] stands for this setting: dose: 100.0 mg/kg/injection, schedule: Q04DX003 (ip), vehicle: saline with Tween-80.
The mark [8] stands for this setting: dose: 200.0 mg/kg/injection, schedule: Q04DX003 (ip), vehicle: saline with Tween-80.
Where [9] appears, read: dose: 400.0 mg/kg/injection, schedule: Q04DX003 (ip), vehicle: saline with Tween-80.
Where [10] appears, read: dose: 25.0 mg/kg/injection, schedule: Q01DX009 (ip), vehicle: Klucel (hydroxypropylcellulose) (HPC).
Where [11] appears, read: dose: 50.0 mg/kg/injection, schedule: Q01DX009 (ip), vehicle: Klucel (hydroxypropylcellulose) (HPC).
Where [12] appears, read: dose: 100.0 mg/kg/injection, schedule: Q01DX009 (ip), vehicle: Klucel (hydroxypropylcellulose) (HPC).
Setting [13] is: dose: 200.0 mg/kg/injection, schedule: Q01DX009 (ip), vehicle: Klucel (hydroxypropylcellulose) (HPC).

As for `CCCCCC(O)C1C(=O)OC(C)C(O)/C=C/C=C/C=C/C=C\C=C(\C)C(O)CC(O)CC(O)CC(O)CC(O)CC(O)CC1O` (stereo not drawn), the T/C runs as follows: (dose: 2.5 mg/kg/injection, schedule: Q01DX009 (ip), vehicle: saline) 111 % of control; (dose: 5.0 mg/kg/injection, schedule: Q01DX009 (ip), vehicle: Klucel (hydroxypropylcellulose) (HPC)) 95 % of control; (dose: 10.0 mg/kg/injection, schedule: Q01DX009 (ip), vehicle: Klucel (hydroxypropylcellulose) (HPC)) 105 % of control; (dose: 20.0 mg/kg/injection, schedule: Q01DX009 (ip), vehicle: Klucel (hydroxypropylcellulose) (HPC)) 90 % of control.

As to `COc1cccc(/C=C(/SC)S(C)=O)c1OC` (stereo not drawn), the T/C was 106 % of control under setting [1]; 115 % of control (dose: 200.0 mg/kg/injection, schedule: Q04DX003 (ip), vehicle: saline); 120 % of control (dose: 400.0 mg/kg/injection, schedule: Q04DX003 (ip), vehicle: saline).

On to `O=S1(=O)CCCCO1`, for which the T/C is, setting by setting: (dose: 11.0 mg/kg/injection, schedule: Q01DX009 (ip), vehicle: saline) 90 % of control; (dose: 16.5 mg/kg/injection, schedule: Q01DX009 (ip), vehicle: saline) 100 % of control; under setting [2], 109 % of control; (dose: 25.0 mg/kg/injection, schedule: Q04DX003 (ip), vehicle: saline) 95 % of control; (dose: 37.5 mg/kg/injection, schedule: Q01DX009 (ip), vehicle: saline) 100 % of control; (dose: 50.0 mg/kg/injection, schedule: Q04DX003 (ip), vehicle: saline) 100 % of control. The T/C under setting [1] was 104 % of control.

With `C[N+]1=C2CCCCC2=C(N)CC1`, the T/C runs as follows: (dose: 6.25 mg/kg/injection, schedule: Q01DX009 (ip), vehicle: saline) 110 % of control; (dose: 6.25 mg/kg/injection, schedule: Q04DX003 (ip), vehicle: saline sonified) 100 % of control; (dose: 12.5 mg/kg/injection, schedule: Q01DX009 (ip), vehicle: saline) 100 % of control; (dose: 12.5 mg/kg/injection, schedule: Q04DX003 (ip), vehicle: saline sonified) 100 % of control; under setting [2], 110 % of control; (dose: 25.0 mg/kg/injection, schedule: Q04DX003 (ip), vehicle: saline sonified) 100 % of control.

For the compound `Cc1ccc(NC(=O)NC2CCCCC2)cc1`, the T/C is, setting by setting: under setting [3], 91 % of control; under setting [4], 88 % of control; under setting [5], 100 % of control.

Regarding `COC(=O)C1=C(\N2CCOCC2)CCCCC/C=C\1C(=O)OC`, the T/C under setting [6] was 100 % of control and the T/C under setting [4] was 100 % of control.

In the case of `CCOC(=O)c1cc(N)c(N2CCCC2)cc1Cl`, the T/C was 100 % of control under setting [7]; 89 % of control (dose: 133.0 mg/kg/injection, schedule: Q04DX003 (ip), vehicle: saline with Tween-80); 105 % of control under setting [8]; 94 % of control (dose: 300.0 mg/kg/injection, schedule: Q04DX003 (ip), vehicle: saline with Tween-80); 100 % of control under setting [9].

`C=CCOC(=O)C1c2ccccc2Cc2ccccc21`: the T/C is, setting by setting: under setting [3], 110 % of control; under setting [7], 100 % of control; under setting [4], 115 % of control; under setting [8], 100 % of control; under setting [5], 110 % of control; under setting [9], 109 % of control.

Consider `CC(=O)O[C@@H]1c2c(c3c(=O)c4cccc(O)c4c(=O)c=3c2=[N+]=[N-])[C@H](OC(C)=O)[C@@H](OC(C)=O)[C@]1(C)O`, for which the T/C reads like this: (dose: 3.0 mg/kg/injection, schedule: Q01DX009 (ip), vehicle: Klucel (hydroxypropylcellulose) (HPC)) 118 % of control; (dose: 6.0 mg/kg/injection, schedule: Q01DX009 (ip), vehicle: Klucel (hydroxypropylcellulose) (HPC)) 105 % of control.

As to `O=[N+]([O-])c1ccccc1N/N=C\c1c(Cl)[nH]c2ccccc12`, the T/C runs as follows: (dose: 200.0 mg/kg/injection, schedule: Q04DX002 (ip), vehicle: Klucel (hydroxypropylcellulose) (HPC)) 90 % of control; (dose: 400.0 mg/kg/injection, schedule: Q04DX002 (ip), vehicle: Klucel (hydroxypropylcellulose) (HPC)) 90 % of control.

On to `OCCOc1c(Cl)cc(Cl)cc1Cl`, for which the T/C under setting [6] is 100 % of control; the T/C under setting [3] is 100 % of control; the T/C under setting [7] was 113 % of control; the T/C under setting [4] was 100 % of control; the T/C under setting [8] was 100 % of control.

For `Nc1cccc2c1C(=O)c1cccc(NC(=O)c3ccccc3)c1C2=O`, the T/C (dose: 6.25 mg/kg/injection, schedule: Q01DX009 (ip), vehicle: Klucel (hydroxypropylcellulose) (HPC)) was 104 % of control; the T/C (dose: 12.5 mg/kg/injection, schedule: Q01DX009 (ip), vehicle: Klucel (hydroxypropylcellulose) (HPC)) is 109 % of control; the T/C under setting [10] is 116 % of control; the T/C under setting [11] is 113 % of control; the T/C under setting [12] was 115 % of control; the T/C under setting [13] was 122 % of control. Also, under “dose: 400.0 mg/kg/injection, schedule: Q01DX009 (ip), vehicle: Klucel (hydroxypropylcellulose) (HPC)”, the T/C was 151 % of control.

In the case of `COc1cc2ccc(C(C)NCC#N)cc2cc1OC` (stereo not drawn), the T/C was 109 % of control under setting [11]; 100 % of control (dose: 50.0 mg/kg/injection, schedule: Q04DX003 (ip), vehicle: Klucel (hydroxypropylcellulose) (HPC)); 100 % of control under setting [12]; 95 % of control (dose: 100.0 mg/kg/injection, schedule: Q04DX003 (ip), vehicle: Klucel (hydroxypropylcellulose) (HPC)); 122 % of control under setting [13]; 95 % of control (dose: 200.0 mg/kg/injection, schedule: Q04DX003 (ip), vehicle: Klucel (hydroxypropylcellulose) (HPC)).

With `O=C1NC(c2cccc(OCc3ccccc3)c2)Nc2ccccc21` (stereo not drawn), the T/C runs as follows: (dose: 3.13 mg/kg/injection, schedule: Q01DX009 (ip), vehicle: Klucel (hydroxypropylcellulose) (HPC)) 97 % of control; under setting [10], 94 % of control and 110 % of control; under setting [11], 108 % of control; (dose: 62.5 mg/kg/injection, schedule: Q01DX009 (ip), vehicle: Klucel (hydroxypropylcellulose) (HPC)) 150 % of control; under setting [12], 120 % of control; (dose: 250.0 mg/kg/injection, schedule: Q01DX009 (ip), vehicle: Klucel (hydroxypropylcellulose) (HPC)) 166 % of control.

On to `CC(C)CC(NC(=O)C(C)N)C(=O)NCC(=O)O` (stereo not drawn), for which the T/C runs as follows: (dose: 50.0 mg/kg/injection, schedule: Q01DX005 (ip), vehicle: saline) 100 % of control; (dose: 100.0 mg/kg/injection, schedule: Q01DX005 (ip), vehicle: saline) 91 % of control; (dose: 200.0 mg/kg/injection, schedule: Q01DX005 (ip), vehicle: saline) 103 % of control.

For the compound `CC(CC(O)C(C)(C)C)C(C)(C)C` (stereo not drawn), the T/C by setting is: (dose: 12.5 mg/kg/injection, schedule: Q01DX009 (ip), vehicle: saline with Tween-80) 117 % of control; (dose: 25.0 mg/kg/injection, schedule: Q01DX009 (ip), vehicle: saline with Tween-80) 110 % of control; under setting [6], 117 % of control.

Regarding `CCCCCCCC(=O)NN`, the T/C was 96 % of control (dose: 3.12 mg/kg/injection, schedule: Q01DX009 (ip), vehicle: other); 98 % of control (dose: 6.25 mg/kg/injection, schedule: Q01DX009 (ip), vehicle: other); 99 % of control (dose: 12.5 mg/kg/injection, schedule: Q01DX009 (ip), vehicle: other); 117 % of control (dose: 25.0 mg/kg/injection, schedule: Q01DX009 (ip), vehicle: other); 117 % of control (dose: 50.0 mg/kg/injection, schedule: Q01DX009 (ip), vehicle: other); 91 % of control (dose: 50.0 mg/kg/injection, schedule: Q04DX003 (ip), vehicle: water). Moreover, the T/C by setting is: (dose: 100.0 mg/kg/injection, schedule: Q01DX009 (ip), vehicle: other) 92 % of control; (dose: 100.0 mg/kg/injection, schedule: Q04DX003 (ip), vehicle: water) 124 % of control; (dose: 200.0 mg/kg/injection, schedule: Q01DX009 (ip), vehicle: other) 97 % of control.

Regarding `NC(=S)N/N=C\c1nnc(N)s1`, the T/C under setting [6] was 90 % of control.

Consider `CC1C(=O)CCC2(C)CCC(C)(C)CC12` (stereo not drawn), for which the T/C runs as follows: under setting [7], 109 % of control; under setting [8], 109 % of control; under setting [9], 95 % of control.

(Values after PubChem BioAssay AID328 (DTP/NCI, 2004).)
